Experimental findings from PubChem BioAssay AID1745844 (Carcinogenic Potency Database (CPDB), 2022) are described below.

In the data set the test system is rodent lifetime carcinogenesis bioassay, tumor incidence TD50. As to the kind of experiment: carcinogenic potency in animals, long-term in vivo studies, CPDB compilation (AID 1745844).
Where [1] appears, read: mouse, strain B6C3F1, males, in feed, site: any site (literature study), lesion: several types, types named in the paper, dosed 78 weeks, study length 94 weeks.
The mark [2] stands for this setting: mouse, strain B6C3F1, males, in feed, site: liver, lesion: hepatocellular adenoma + hepatocellular carcinoma + neoplastic nodule, dosed 78 weeks, study length 94 weeks.

Molecules are shown by their SMILES. “And” between values parts separate entries of the source, which are not always exact repeats. Equal entries are not always repeated. The source made the active and inactive calls. No rule for the calls is given here.

By TD50 is commonly meant the dose at which the toxic effect under study appears in half of the subjects. With `Cc1cc(N)ccc1N`, the TD50 runs as follows: (mouse, strain B6C3F1, females, in feed, site: any site (literature study), lesion: several types, types named in the paper, dosed 78 weeks, study length 94 weeks) 33200 mg/kg/day; (mouse, strain B6C3F1, females, in feed, site: liver, lesion: hepatocellular adenoma + hepatocellular carcinoma + neoplastic nodule, dosed 78 weeks, study length 94 weeks) 1960 mg/kg/day; (mouse, strain B6C3F1, females, in feed, site: lung, lesion: alveolar/bronchiolar adenoma + alveolar/bronchiolar carcinoma, dosed 78 weeks, study length 94 weeks) 364 mg/kg/day (inactive) and 364 mg/kg/day; under setting [1], 272 mg/kg/day (inactive); under setting [2], 288 mg/kg/day; (mouse, strain B6C3F1, males, in feed, site: lung, lesion: alveolar/bronchiolar adenoma + alveolar/bronchiolar carcinoma, dosed 78 weeks, study length 94 weeks) 3560 mg/kg/day. The TD50 (rat, strain Fischer 344, males, in feed, site: liver, lesion: hepatocellular adenoma + hepatocellular carcinoma + neoplastic nodule, dosed 78 weeks, study length 106 weeks) came out at 233 mg/kg/day. Further, the carcinogen call is, setting by setting: (rat, strain Fischer 344, females, in feed, site: any site (literature study), lesion: several types, types named in the paper, dosed 78 weeks, study length 107 weeks) “negative (inactive)”; (rat, strain Fischer 344, males, in feed, site: any site (literature study), lesion: several types, types named in the paper, dosed 78 weeks, study length 106 weeks) “negative (inactive)”.
As for `c1ccc2sc(SSc3nc4ccccc4s3)nc2c1`, the TD50 (mouse, strain B6AKF1, females, oral dosing, site: any site (literature study), lesion: several types, types named in the paper, dosed 76 weeks, study length 76 weeks) is 1380 mg/kg/day (inactive); the TD50 (mouse, strain B6AKF1, males, oral dosing, site: any site (literature study), lesion: several types, types named in the paper, dosed 76 weeks, study length 76 weeks) was 511 mg/kg/day (inactive); the TD50 (mouse, strain B6AKF1, males, oral dosing, site: lung, lesion: adenoma, dosed 76 weeks, study length 76 weeks) was 1130 mg/kg/day (inactive); the TD50 (mouse, strain B6C3F1, females, oral dosing, site: any site (literature study), lesion: several types, types named in the paper, dosed 76 weeks, study length 76 weeks) was 432 mg/kg/day (inactive); the TD50 (mouse, strain B6C3F1, females, oral dosing, site: lung, lesion: adenoma, dosed 76 weeks, study length 76 weeks) is 669 mg/kg/day (inactive); the TD50 (mouse, strain B6C3F1, males, oral dosing, site: any site (literature study), lesion: several types, types named in the paper, dosed 76 weeks, study length 76 weeks) was 401 mg/kg/day (inactive). The TD50 (mouse, strain B6C3F1, males, oral dosing, site: liver, lesion: hepatoma, dosed 76 weeks, study length 76 weeks) is 621 mg/kg/day (inactive). Besides, the carcinogen call was “negative (inactive)” (mouse, strain B6AKF1, females, oral dosing, site: liver, lesion: hepatoma, dosed 76 weeks, study length 76 weeks); “negative (inactive)” (mouse, strain B6AKF1, females, oral dosing, site: lung, lesion: adenoma, dosed 76 weeks, study length 76 weeks); “negative (inactive)” (mouse, strain B6AKF1, males, oral dosing, site: liver, lesion: hepatoma, dosed 76 weeks, study length 76 weeks); “negative (inactive)” (mouse, strain B6C3F1, females, oral dosing, site: liver, lesion: hepatoma, dosed 76 weeks, study length 76 weeks); “negative (inactive)” (mouse, strain B6C3F1, males, oral dosing, site: lung, lesion: several types, types named in the paper, dosed 76 weeks, study length 76 weeks).
For `Oc1cccc(O)c1`, the TD50 (mouse, strain B6C3F1, females, by gavage, site: any site (literature study), lesion: several types, types named in the paper, dosed 104 weeks, study length 104 weeks) is 1880 mg/kg/day (inactive); the TD50 (mouse, strain B6C3F1, females, by gavage, site: liver, lesion: hepatocellular adenoma + hepatocellular carcinoma + neoplastic nodule, dosed 104 weeks, study length 104 weeks) was determined as 1560 mg/kg/day; the TD50 (mouse, strain B6C3F1, females, by gavage, site: lung, lesion: alveolar/bronchiolar adenoma + alveolar/bronchiolar carcinoma, dosed 104 weeks, study length 104 weeks) came out at 1350 mg/kg/day; the TD50 (mouse, strain B6C3F1, males, by gavage, site: lung, lesion: alveolar/bronchiolar adenoma + alveolar/bronchiolar carcinoma, dosed 104 weeks, study length 104 weeks) came to 6800 mg/kg/day; the TD50 (rat, strain Fischer 344, females, by gavage, site: any site (literature study), lesion: several types, types named in the paper, dosed 103 weeks, study length 104 weeks) was 219 mg/kg/day (inactive); the TD50 (rat, strain Fischer 344, males, by gavage, site: any site (literature study), lesion: several types, types named in the paper, dosed 103 weeks, study length 104 weeks) was determined as 213 mg/kg/day. For the same compound, the TD50 (rat, strain Fischer 344, males, by gavage, site: testis, lesion: interstitial-cell adenoma, dosed 103 weeks, study length 104 weeks) was 84 mg/kg/day (inactive). For the same compound, the carcinogen call (mouse, strain B6C3F1, males, by gavage, site: any site (literature study), lesion: several types, types named in the paper, dosed 104 weeks, study length 104 weeks) is “negative (inactive)”.
With `Nc1ccc(Cl)c(N)c1`, the TD50 is 15400 mg/kg/day (mouse, strain B6C3F1, females, in feed, site: any site (literature study), lesion: several types, types named in the paper, dosed 78 weeks, study length 95 weeks); 1230 mg/kg/day (mouse, strain B6C3F1, females, in feed, site: liver, lesion: hepatocellular adenoma + hepatocellular carcinoma + neoplastic nodule, dosed 78 weeks, study length 95 weeks); 1230 mg/kg/day (mouse, strain B6C3F1, females, in feed, site: liver, lesion: hepatocellular adenoma + hepatocellular carcinoma, dosed 78 weeks, study length 95 weeks); 1780 mg/kg/day (mouse, strain B6C3F1, females, in feed, site: liver, lesion: hepatocellular carcinoma, dosed 78 weeks, study length 95 weeks); 7320 mg/kg/day (inactive) under setting [1]; 7050 mg/kg/day under setting [2]. The TD50 is, setting by setting: (rat, strain Fischer 344, females, in feed, site: any site (literature study), lesion: several types, types named in the paper, dosed 78 weeks, study length 104 weeks) 479 mg/kg/day; (rat, strain Fischer 344, females, in feed, site: liver, lesion: hepatocellular adenoma + hepatocellular carcinoma + neoplastic nodule, dosed 78 weeks, study length 104 weeks) 2680 mg/kg/day; (rat, strain Fischer 344, females, in feed, site: uterus, lesion: endometrial stromal polyp, dosed 78 weeks, study length 104 weeks) 175 mg/kg/day (inactive); (rat, strain Fischer 344, males, in feed, site: adrenal gland, lesion: pheochromocytoma, dosed 78 weeks, study length 104 weeks) 315 mg/kg/day; (rat, strain Fischer 344, males, in feed, site: any site (literature study), lesion: several types, types named in the paper, dosed 78 weeks, study length 104 weeks) 422 mg/kg/day; (rat, strain Fischer 344, males, in feed, site: liver, lesion: hepatocellular adenoma + hepatocellular carcinoma + neoplastic nodule, dosed 78 weeks, study length 104 weeks) 1570 mg/kg/day.
With `CCOc1ccc(NC(C)=O)cc1N`, the TD50 runs as follows: (mouse, strain B6C3F1, females, in feed, site: any site (literature study), lesion: several types, types named in the paper, dosed 78 weeks, study length 93 weeks) 569 mg/kg/day; (mouse, strain B6C3F1, females, in feed, site: lung, lesion: alveolar/bronchiolar adenoma + alveolar/bronchiolar carcinoma, dosed 78 weeks, study length 93 weeks) 8630 mg/kg/day; (mouse, strain B6C3F1, females, in feed, site: pituitary gland, lesion: adenoma, NOS + carcinoma, NOS + chromophobe adenoma, dosed 78 weeks, study length 93 weeks) 1050 mg/kg/day (inactive); (mouse, strain B6C3F1, males, in feed, site: liver, lesion: hepatocellular adenoma + hepatocellular carcinoma + neoplastic nodule, dosed 78 weeks, study length 93 weeks) 8990 mg/kg/day; (mouse, strain B6C3F1, males, in feed, site: thyroid gland, lesion: adenocarcinoma, NOS + adenoma, NOS + follicular-cell adenoma + follicular-cell carcinoma, dosed 78 weeks, study length 93 weeks) 2070 mg/kg/day; (mouse, strain B6C3F1, males, in feed, site: thyroid gland, lesion: adenocarcinoma, NOS + follicular-cell carcinoma, dosed 78 weeks, study length 93 weeks) 4020 mg/kg/day. The TD50 is, setting by setting: (mouse, strain B6C3F1, males, in feed, site: thyroid gland, lesion: follicular-cell carcinoma, dosed 78 weeks, study length 93 weeks) 3770 mg/kg/day; (rat, strain Fischer 344, females, in feed, site: adrenal gland, lesion: cortical adenoma + cortical carcinoma, dosed 78 weeks, study length 106 weeks) 415 mg/kg/day (inactive); (rat, strain Fischer 344, females, in feed, site: liver, lesion: hepatocellular adenoma + hepatocellular carcinoma + neoplastic nodule, dosed 78 weeks, study length 106 weeks) 717 mg/kg/day; (rat, strain Fischer 344, males, in feed, site: thyroid gland, lesion: c-cell carcinoma, dosed 78 weeks, study length 106 weeks) 610 mg/kg/day (inactive).
In the case of `CS(=O)(=O)OCCCCOS(C)(=O)=O`, the TD50 is 0.642 mg/kg/day (rat, strain BR 46, males, by gavage, site: any site (literature study), lesion: benign tumor, dosed 52 weeks, study length 104 weeks); 0.117 mg/kg/day (rat, strain BR 46, males, by gavage, site: any site (literature study), lesion: malignant tumor, dosed 52 weeks, study length 104 weeks); 0.0931 mg/kg/day (rat, strain BR 46, males, by gavage, site: any site (literature study), lesion: several types, types named in the paper, dosed 52 weeks, study length 104 weeks).
Consider `CN(C)c1ccc(C(=C2C=CC(=[N+](C)C)C=C2)c2ccc(N(C)C)cc2)cc1`, for which the TD50 is 305 mg/kg/day (mouse, strain B6C3F1, females, in feed, site: Harderian gland, lesion: adenoma, dosed 107 weeks, study length 107 weeks); 115 mg/kg/day (mouse, strain B6C3F1, females, in feed, site: liver, lesion: hepatocellular adenoma, dosed 78 weeks, study length 78 weeks); 75.5 mg/kg/day (mouse, strain B6C3F1, females, in feed, site: liver, lesion: hepatocellular adenoma, dosed 107 weeks, study length 107 weeks); 343 mg/kg/day (mouse, strain B6C3F1, females, in feed, site: liver, lesion: hepatocellular carcinoma, dosed 78 weeks, study length 78 weeks); 57.9 mg/kg/day (mouse, strain B6C3F1, females, in feed, site: liver, lesion: hepatocellular carcinoma, dosed 107 weeks, study length 107 weeks); 912 mg/kg/day (mouse, strain B6C3F1, females, in feed, site: ovary, lesion: reticulum-cell sarcoma, type A, dosed 107 weeks, study length 107 weeks). Further, the TD50 runs as follows: (mouse, strain B6C3F1, females, in feed, site: urinary bladder, lesion: reticulum-cell sarcoma, type A, dosed 107 weeks, study length 107 weeks) 834 mg/kg/day; (mouse, strain B6C3F1, females, in feed, site: uterus, lesion: reticulum-cell sarcoma, type A, dosed 107 weeks, study length 107 weeks) 413 mg/kg/day; (mouse, strain B6C3F1, females, in feed, site: vagina, lesion: reticulum-cell sarcoma, type A, dosed 107 weeks, study length 107 weeks) 668 mg/kg/day; (mouse, strain B6C3F1, males, in feed, site: Harderian gland, lesion: adenoma, dosed 107 weeks, study length 107 weeks) 615 mg/kg/day; (mouse, strain B6C3F1, males, in feed, site: liver, lesion: hepatocellular adenoma, dosed 78 weeks, study length 78 weeks) 636 mg/kg/day (inactive); (mouse, strain B6C3F1, males, in feed, site: liver, lesion: hepatocellular adenoma, dosed 107 weeks, study length 107 weeks) 139 mg/kg/day. For the same compound, where the note is “mouse, strain B6C3F1, males, in feed, site: liver, lesion: hepatocellular carcinoma, dosed 107 weeks, study length 107 weeks”, the TD50 is 222 mg/kg/day. The carcinogen call is “negative (inactive)” (mouse, strain B6C3F1, females, in feed, site: liver, lesion: one or several types, types not named, dosed 52 weeks, study length 52 weeks); “negative (inactive)” (mouse, strain B6C3F1, males, in feed, site: liver, lesion: hepatocellular adenoma, dosed 52 weeks, study length 52 weeks); “negative (inactive)” (mouse, strain B6C3F1, males, in feed, site: liver, lesion: hepatocellular carcinoma, dosed 78 weeks, study length 78 weeks).
